Test results reported in the supplement of paper PMC10307832.

Legend:
Test in all cases: relative viability (nuclei count vs DMSO), 5 days (fraction); higher = more cells survive
[1] = compound: COc1cc2nccc(Oc3ccc(NC(=O)C4(C(=O)Nc5ccc(F)cc5)CC4)cc3)c2cc1OC [Cabozantinib] + Nc1ncn([C@H]2C[C@H](O)[C@@H](CO)O2)c(=O)n1 [Decitabine] (partner 2 µM)
Method in brief: (§1)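 Dosing by pin tool came one day after lung cancer cell lines were seeded in 1536-well plates, using either one drug or a fixed anchor-drug dose plus five library-drug doses (not always all listed) in √10 steps. After 5 days, nuclei were counted on 4× images. Relative viability is treated-well nuclei count divided by vehicle-well nuclei count, and values are medians of duplicate plates.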

Kobe2602 + Alpelisib = compound: C1=CC(=CC=C1NC(=S)NNC2=C(C=C(C=C2[N+](=O)[O-])C(F)(F)F)[N+](=O)[O-])F [Kobe2602] + Cc1nc(NC(=O)N2CCC[C@H]2C(N)=O)sc1-c1ccnc(C(C)(C)C(F)(F)F)c1 [Alpelisib] (partner 2 µM)
Method in brief: as §1

Zosuquidar + Pictilisib = compound: O[C@@H](COc1cccc2ncccc12)CN1CCN([C@@H]2c3ccccc3[C@@H]3[C@H](c4ccccc42)C3(F)F)CC1 [Zosuquidar] + CS(=O)(=O)N1CCN(Cc2cc3nc(-c4cccc5[nH]ncc45)nc(N4CCOCC4)c3s2)CC1 [Pictilisib] (partner 1 µM)
Method in brief: as §1

Zosuquidar + Phenformin = compound: O[C@@H](COc1cccc2ncccc12)CN1CCN([C@@H]2c3ccccc3[C@@H]3[C@H](c4ccccc42)C3(F)F)CC1 [Zosuquidar] + N=C(N)NC(=N)NCCc1ccccc1 [Phenformin] (partner 250 µM)
Method in brief: as §1

Cell Line | relative viability ([1]; first compound 0.02 µM) | relative viability ([1]; first compound 0.06325 µM) | relative viability ([1]; first compound 0.2 µM) | relative viability ([1]; first compound 0.6325 µM) | relative viability ([1]; first compound 2 µM) | relative viability (Kobe2602 + Alpelisib; first compound 0.2 µM) | relative viability (Kobe2602 + Alpelisib; first compound 0.6325 µM) | relative viability (Kobe2602 + Alpelisib; first compound 2 µM) | relative viability (Kobe2602 + Alpelisib; first compound 6.325 µM) | relative viability (Kobe2602 + Alpelisib; first compound 20 µM) | relative viability (Zosuquidar + Pictilisib; first compound 0.01 µM) | relative viability (Zosuquidar + Pictilisib; first compound 0.03162 µM) | relative viability (Zosuquidar + Pictilisib; first compound 0.1 µM) | relative viability (Zosuquidar + Pictilisib; first compound 0.3162 µM) | relative viability (Zosuquidar + Pictilisib; first compound 1 µM) | relative viability (Zosuquidar + Phenformin; first compound 0.01 µM) | relative viability (Zosuquidar + Phenformin; first compound 0.03162 µM) | relative viability (Zosuquidar + Phenformin; first compound 0.1 µM) | relative viability (Zosuquidar + Phenformin; first compound 0.3162 µM) | relative viability (Zosuquidar + Phenformin; first compound 1 µM)
NCI-H1993 | 0.71 | 0.681 | 0.519 | 0.576 | 0.458 | 0.67 | 0.844 | 0.591 | 0.669 | 0.666 | 0.766 | 0.913 | 0.804 | 0.875 | 0.644 | 0.422 | 0.596 | 0.438 | 0.476 | 0.533
COR-L23 | 0.449 | 0.371 | 0.445 | 0.441 | 0.419 | 0.752 | 0.827 | 0.809 | 0.885 | 0.83 | 0.76 | 0.658 | 0.679 | 1.01 | 0.889 | 0.422 | 0.413 | 0.416 | 0.514 | 0.453
HCC-44 | 0.908 | 0.996 | 0.981 | 1 | 0.987 | 0.852 | 0.793 | 0.767 | 0.725 | 0.737 | 0.615 | 0.57 | 0.603 | 0.742 | 0.815 | 0.259 | 0.191 | 0.161 | 0.336 | 0.209
LU99A | 0.843 | 1.01 | 0.854 | 0.787 | 0.882 | 0.515 | 0.525 | 0.415 | 0.542 | 0.607 | 0.252 | 0.275 | 0.354 | 0.327 | 0.4 | 0.859 | 0.793 | 0.834 | 0.971 | 0.808
NCI-H596 | 1.06 | 1.39 | 1.07 | 1.01 | 0.98 | 0.489 | 0.438 | 0.46 | 0.453 | 0.415 | 0.439 | 0.432 | 0.36 | 0.401 | 0.414 | 0.765 |  | 0.798 | 0.909 | 0.761
NCI-H727 | 0.595 | 0.976 | 0.881 | 0.865 | 0.907 | 0.625 | 0.518 | 0.614 | 0.571 | 0.728 | 0.36 | 0.555 | 0.228 | 0.391 | 0.506 | 0.318 | 0.563 | 0.466 | 0.522 | 0.519
NCI-H1975 | 0.406 | 0.399 | 0.412 | 0.418 | 0.327 | 0.641 | 0.648 | 0.559 | 0.564 | 0.524 | 0.289 | 0.269 | 0.292 | 0.332 | 0.288 | 0.397 | 0.378 | 0.417 | 0.42 | 0.399
